“Also recorded” adds a separate entry of the source. Read-outs that look alike come from different tables or passages of the source.
Experiments:
[1] = test system: DAOY (medulloblastoma cell line); experiment: Cancer cell proliferation, MTT-based assay, DAOY; settings: Homo sapiens, 72 h
Protocol: (§1) The effects on cancer cell proliferation were tested for those compounds shown to be able to reduce Gli1 protein level in NIH3T3 cells. Two different commercial cancer cell lines were used: A375 (metastatic melanoma cell line) and DAOY (medulloblastoma cell line).
(§2) To test the effects on cancer cell proliferation, both cell types were treated for 72 h with increasing doses (10 nM, 50 nM, 100 nM, 250 nM, 500 nM, 1 µM, 5 µM) of each compound and counted at the end of the treatment with an MTT-based assay. IC50 was calculated by GraphPad Prism software.

[2] = test system: A375 (metastatic melanoma cell line); experiment: Cancer cell proliferation, MTT-based assay, A375; settings: Homo sapiens, A-375, A375, 72 h
Protocol: as §1, §2

Gli1 protein = experiment: Effect on Gli1 protein expression by Western blotting in SAG-stimulated NIH3T3 cells; format: cell-based, murine; set-up: key to Effect on Gli1 protein: +++: Gli1 protein level strongly reduced (almost abolished) at 24 and 48 h compared to DMSO control; ++: Gli1 protein level reduced (more than 50%) at 48 h compared to DMSO control; +: Gli1 protein level is weakly reduced (about 50%) at 48 h compared to DMSO control; settings: compound 1 µM; for Effect on Gli1 protein: NIH3T3 cells stimulated with SAG (100nM), 24 or 48 h, compared to DMSO control; for Gli1 protein level: Figure 1, NIH3T3 cells, 48 h, reference GANT61 5 µM, result in words
Protocol: The effect of compounds on Gli1 protein expression was evaluated in HH-responsive murine NIH3T3 cells by Western blotting. Both Gli1 and Ptch1 are targets of the Gli, and Gli1 in particular is considered the best read-out of HH signaling activity.
Briefly, NIH3T3 were stimulated for 48 h with 3-chloro-N-[trans-4-(methylamino)cyclohexyl]-N-[[3-(4-pyridinyl)phenyl]methyl]-benzo[b]thiophene-2-carboxamide (SAG) (100nM) to activate the endogenous HH pathway, and treated for 24 or 48 h with each compound (1 µM). NIH3T3 cells were lysed and subjected to Western blotting using a specific anti-GLI1 antibody. The effect of each compound was compared to that of GANT61 (5 µM), a well known Gli1/2 inhibitor (Lauth M. et al. PNAS 2007, 104, 8455).

[3] = Table 3, commercially available compounds, read-out: Effect on proliferation DAOY (IC50; nM)
[4] = Table 3, commercially available compounds, read-out: Effect on proliferation A375 (IC50; nM)
[5] = Table 3, commercially available compounds
[6] = Table 2, new compounds, read-out: Effect on proliferation DAOY (IC50; nM)
[7] = Table 2, new compounds, read-out: Effect on proliferation A375 (IC50; nM)
[8] = Figure 2 dose-response curve, read-out: IC50

| Compound | IC50 [1, 3] [nM] | IC50 [2, 4] [nM] | Effect on Gli1 protein (Gli1 protein; [5]) | IC50 [1, 6] [nM] | IC50 [2, 7] [nM] | Effect on Gli1 protein (Gli1 protein; Table 2, new compounds) | Gli1 protein level (Gli1 protein) | IC50 [1, 8] [nM] | IC50 [2, 8] [nM] |
| --- | --- | --- | --- | --- | --- | --- | --- | --- | --- |
| CCCC(=O)NC(c1ccc(Cl)cc1Cl)c1cc(Cl)c2cccnc2c1O (stereo not shown) [SST0689AA1, N-[(5-Chloro-8-hydroxy-quinolin-7-yl)-(2,4-dichlorophenyl)-methyl]-butyramide] | 300 to 1000 | 300 to 1000 | +++ |  |  |  |  |  |  |
| c1cnc2c3c(ccc2c1)CN(CC1CCCCC1)CO3 [SST0912AA1, 3-(cyclohexylmethyl)-3,4-dihydro-2H-[1,3]oxazino[5,6-h]quinoline] |  |  |  | ≥ 1000 | 300 to 1000 | + |  |  |  |
| c1ccc(CCN2COc3c(ccc4cccnc34)C2)cc1 [SST0823AA1, 3-phenethyl-3,4-dihydro-2H-[1,3]oxazino[5,6-h]quinoline] |  |  |  | ≤ 300 | ≤ 300 | +++ | drastic reduction of Gli1 protein level; also recorded: abolish Gli1 protein level |  |  |
| COc1ccc(C(NC(C)=O)c2cc(Cl)c3cccnc3c2O)cc1OC (stereo not shown) [SST0687AA1, N-[(5-Chloro-8-hydroxy-quinolin-7-yl)-(3,4-dimethoxy-phenyl)-methyl]-acetamide] | 300 to 1000 | 300 to 1000 | +++ |  |  |  |  |  |  |
| c1ccc2c(c1)CCC(N1COc3c(ccc4cccnc34)C1)C2 (stereo not shown) [SST0893AA1, 3-(1,2,3,4-tetrahydronaphthalen-2-yl)-3,4-dihydro-2H-[1,3]oxazino[5,6-h]quinoline] |  |  |  | 300 to 1000 | 300 to 1000 | + |  |  |  |
| Oc1c(C(NCCc2ccccc2)c2ccc(Cl)cc2Cl)ccc2cccnc12 (stereo not shown) [SST0827AA1, 7-((2,4-dichlorophenyl)(phenethylamino)methyl)quinolin-8-ol] |  |  |  | ≤ 300 | ≤ 300 | +++ | drastic reduction of Gli1 protein level; also recorded: abolish Gli1 protein level |  |  |
| O=C1Oc2c(ccc3cccnc23)C(c2ccc(Cl)cc2Cl)N1CCc1ccccc1 (stereo not shown) [SST0826AA1, 4-(2,4-dichlorophenyl)-3-phenethyl-3,4-dihydro-2H-[1,3]oxazino[5,6-h]quinolin-2-one] |  |  |  |  |  |  | slight reduction in Gli1 protein level |  |  |
| CCCCC(=O)NC(c1ccc(C(C)C)cc1)c1cc(Cl)c2cccnc2c1O (stereo not shown) [SST0774AA1, Pentanamide, N-[(5-chloro-8-hydroxy-7-quinolinyl)[4-(1-methylethyl)phenyl]methyl]-] | ≤ 300 | ≤ 300 | +++ |  |  |  |  |  |  |
| CCCCC(=O)NC(c1ccc(OC)c(OC)c1)c1ccc2cccnc2c1O (stereo not shown) [SST0777AA1, Pentanamide, N-[(3,4-dimethoxyphenyl)(8-hydroxy-7-quinolinyl)methyl]] | 300 to 1000 | 300 to 1000 | +++ |  |  |  |  |  |  |
| Clc1cc2c(c3ncccc13)OCN(CCCN1CCOCC1)C2 [SST0792AA1, 2H-Pyrido[3,2-h]-1,3-benzoxazine, 6-chloro-3,4-dihydro-3-[3-(4-morpholinyl)propyl]-] | ≥ 1000 | ≤ 300 | + |  |  |  |  |  |  |
| CCCCN1COc2c(cc(Cl)c3cccnc23)C1 [SST0793AA1, 2H-Pyrido[3,2-h]-1,3-benzoxazine, 3-butyl-6-chloro-3,4-dihydro-] | 300 to 1000 | 300 to 1000 | ++ (Gli1 protein level reduced (more than 50%) at 48 h compared to DMSO control) |  |  |  |  |  |  |
| CCCC(=O)NC(c1ccc(Cl)cc1Cl)c1ccc2cccnc2c1O (stereo not shown) [SST0776AA1, Butanamide, N-[(2,4-dichlorophenyl)(8-hydroxy-7-quinolinyl)methyl]-] | ≤ 300 | ≤ 300 | +++ |  |  |  |  |  |  |
| Fc1cnc2c3c(ccc2c1)CN(CCc1ccccc1)CO3 [SST0891AA1, 8-fluoro-3-phenethyl-3,4-dihydro-2H-[1,3]oxazino[5,6-h]quinoline] |  |  |  | ≥ 1000 | ≥ 1000 | + | comparable to that obtained with GANT61 |  |  |
| c1cnc2c3c(ccc2c1)CN(C1CCCCCC1)CO3 [SST0913AA1, 3-cycloheptyl-3,4-dihydro-2H-[1,3]oxazino[5,6-h]quinoline] |  |  |  | ≥ 1000 | 300 to 1000 | + |  |  |  |
| COc1ccc(CN2COc3c(ccc4cccnc34)C2)cc1 [SST0910AA1, 3-(4-methoxybenzyl)-3,4-dihydro-2H-[1,3]oxazino[5,6-h]quinoline] |  |  |  | 300 to 1000 | 300 to 1000 | + |  |  |  |
| c1cnc2c3c(ccc2c1)CN(C1CCCCC1)CO3 [SST0892AA1, 3-cyclohexyl-3,4-dihydro-2H-[1,3]oxazino[5,6-h]quinoline] |  |  |  | 300 to 1000 | ≤ 300 | +++ | drastic reduction of Gli1 protein level; also recorded: abolish Gli1 protein level | 500 | 300 |
| CCCC(=O)NC(c1ccccc1Cl)c1cc(Cl)c2cccnc2c1O (stereo not shown) [SST0775AA1, Butanamide, N-[(5-chloro-8-hydroxy-7-quinolinyl)(2-chlorophenyl)methyl]-] | 300 to 1000 | 300 to 1000 | + |  |  |  |  |  |  |
| Clc1cc2c(c3ncccc13)OCN(CCc1ccccc1)C2 [SST0794AA1, 2H-Pyrido[3,2-h]-1,3-benzoxazine, 6-chloro-3,4-dihydro-3-(2-phenylethyl)-] | ≤ 300 | ≤ 300 | ++ (Gli1 protein level reduced (more than 50%) at 48 h compared to DMSO control) |  |  |  |  |  |  |
| CCCC(=O)NC(c1ccc(C)cc1)c1cc(Cl)c2cccnc2c1O (stereo not shown) [SST0773AA1, Butanamide, N-[(5-chloro-8-hydroxy-7-quinolinyl)(4-methylphenyl)methyl]-] | 300 to 1000 | 300 to 1000 | + |  |  |  |  |  |  |
| CCCC(=O)NC(c1ccc(N(CC)CC)cc1)c1cc(Cl)c2cccnc2c1O (stereo not shown) [SST0771AA1, Butanamide, N-[(5-chloro-8-hydroxy-7-quinolinyl)[4-(diethylamino)phenyl]methyl]-] | 300 to 1000 | 300 to 1000 | +++ |  |  |  |  |  |  |
| Clc1cc2c(c3ncccc13)OCN(CCC1=CCCCC1)C2 [SST0791AA1, 2H-Pyrido[3,2-h]-1,3-benzoxazine, 6-chloro-3-[2-(1-cyclohexen-1-yl)ethyl]-3,4-dihydro-] | ≤ 300 | ≤ 300 | ++ (Gli1 protein level reduced (more than 50%) at 48 h compared to DMSO control) |  |  |  |  |  |  |
| COc1ccc(C(NC(=O)C(C)C)c2cc(Cl)c3cccnc3c2O)cc1OC (stereo not shown) [SST0769AA1, Propanamide, N-[(5-chloro-8-hydroxy-7-quinolinyl)(3,4-dimethoxyphenyl)methyl]-2-methyl-] | 300 to 1000 | 300 to 1000 | ++ (Gli1 protein level reduced (more than 50%) at 48 h compared to DMSO control) |  |  |  |  |  |  |

Reference: patent EP3388419A1, “GLI1 INHIBITORS AND USES THEREOF” (Leadiant Biosciences SA, priority 2017, dated 2018)
